Reference: US20220031690A1, “ANTI-NEURODEGENERATIVE DISEASE AGENT” (Hayashibara Co., Ltd., priority 2018, published 2022)

Columns and labels:
PC12-HS cells [1] = test: Evaluation method A: neurocyte growth acceleration activity (Alamar blue); type: cell-based, rat; conditions: for Cell proliferation rate (%): negative control = 100%; for Action on PC12-HS growth acceleration (50 ng/ml): 3 days culture, class of cell proliferation rate vs negative control = 100%; for neurocyte growth acceleration activity (in words): 40, 200 and 1,000 nM, comment on Table 2; for cytotoxicity to PC12-HS cells: concentration range tested
Description: (§1) As a model of the nerve cell, the NGF (nerve growth factor) highly sensitive strain of PC12 cell derived from the rat adrenal pheochromocytoma (hereinafter referred to as “PC12-HS cell”; JCRB cell bank, National Research and Development Institute of Health and Nutrition), which has been widely used as a suitable model for research on human neurodegenerative disease, was used. As the test compound, […] of trimethine cyanine dye compounds; NK-5 (Chemical formula 2), NK-36 (Chemical formula 3), NK-44 (Chemical formula 5) and dye compounds represented by Chemical formulae 12 to 18, and NK-6 (Chemical formula 7), which is a monomethine cyanine dye, were selected. In addition, two kinds of ethylene cross-linked dyes (Chemical formulae 19 and 20), 15 kinds of monomethine cyanine dyes (Chemical formulae 21 to 35), and seven kinds of trimethine cyanine dyes (Chemical formulae 36 to 42), which were expected to have a good neurocyte growth acceleration activity and/or neurite-outgrowth promoting activity in the screening disclosed in Patent literature 6, were also re-evaluated for comparison. The Chemical formulae 12 to 42 are shown below.
(§2) The cyanine dye compounds subjected to the test (purity 97% by mass or more, synthesized by Hayashibara Co., Ltd., Okayama, Japan) were individually dissolved in DMSO (product number “D8418”, commercialized by SIGMA Corporation) at a concentration of 5 mg/ml, and the solutions were then filtered through DMSO-resistant membrane (“Millex-LGS LLG025SS”, commercialized by Millipore Corporation) and stored at 25° C. in a dark condition. At the time of use, they were further diluted with Dulbecco's Medium (hereinafter, abbreviated as “D-MEM medium”, commercialized by Nissui Pharmaceutical Co., Ltd.) supplemented by 10% by volume of fetal bovine serum (FBS), and subjected to the test.
PC12-HS cells were subjected to tests after frozen stock cultured cells were thawed and cultured with a D-MEM medium supplemented with 10% by volume of FBS (Hereinafter, when the term “culture” is simply used, it means that the cells are statically cultured in an incubator controlled at 37° C. under 5% by volume of CO2 conditions). Cells used in the test were collected using 0.25% by weight of trypsin solution, then diluted with a D-MEM medium supplemented with 10% by volume of FBS (hereinafter referred to as “culture medium”), seeded into collagen-coated 96-well plates (commercialized by Falcon, Tokyo, Japan, “Microtest Plate, Cell Culture, Flat Bottom”) to obtain 5×10^3 cells/100 μl/well, and cultured for 24 hours (hereinafter referred to as “pre-culture”). Then, the above test samples were diluted with a culture medium, and 100 μl of diluted solution of the test compounds were added to each well so that the final concentration of the test compounds in the wells became 50 ng/ml, and the cells were cultured for another three days. On day 3, the cultures supernatant was removed from each well, 200 μl of culture medium containing 10% by volume of Alamar blue reagents (commercialized by Trek Diagnostic Systems Inc., Ohio, USA) were added to each well, and the cells were cultured for 6 hours. After culturing for 6 hours, the cells were measured for fluorescent intensity at a wavelength of 544-590 nm by “FlexStation 3”, a product name of a fluorescent plate reader (commercialized by Japan Molecular Devices Corporation, Tokyo, Japan). […] Measurements were performed for each test compound in triplicate, and the mean values were shown.
The method was based on Experiment 1-1, except the concentrations of the test compounds were set to three doses of 40 nM, 200 nM and 1,000 nM for evaluation method A (neurocyte growth accelerating effect), and two doses of 200 nM and 1,000 nM for evaluation method B (neurite outgrowth promoting effect). […]

PC12-HS cells [2] = test: Evaluation method B: neurite-outgrowth promoting activity in the presence of NGF; type: cell-based, rat; conditions: for Neurite-outgrowth rate (%) / Action on PC12-HS neurite-outgrowth promotion (500 ng/ml): NGF 10 ng/ml; for Action on PC12-HS neurite-outgrowth promotion (500 ng/ml): 3 days, class of neurite-outgrowth rate; for neurite-outgrowth promoting activity (in words): 200 and 1,000 nM, comment on Table 2
Description: as §1, §2
As in the case of evaluation of neurocyte growth accelerating activity (Evaluation method A), 50 μl/well of each test compound solution, prepared by diluting with the culture medium to give a final concentration of 500 ng/ml, and the culture medium containing 20 ng/ml of mouse NGF (mouse derived, final concentration 10 ng/ml, commercialized by Chemicon International, Inc., CA, USA) (50 μl/well) were added to the precultured PC12-HS cells in each well, and then cultured for three days. Culture medium was removed on day 3 of culture, and cells were fixed by adding 100 μl/well of 10% by volume of glutaraldehyde and standing for 20 minutes at room temperature. As a negative control, PC12-HS cells, cultured for three days with culture medium, were fixed with glutaraldehyde similarly as above. Fixed cells were observed under a microscope to assess the neurite-outgrowth. The neurite-outgrowth rate (%) was determined by observing the cells using a microscope by adjusting the magnitude to give about 100 cells in one visual field, counting the number of cells having neurites twice or more in length of the cell body (major axis), dividing by the total number of cells in the same visual field, and multiplying by 100. Measurements were carried out at three points for each test compound. […] In this experiment, the neurite-outgrowth rate was 5% or less when NGF was added (final concentration 10 ng/ml) without the addition of the test compound.
The method was based on Experiment 1-1, except the concentrations of the test compounds were set to three doses of 40 nM, 200 nM and 1,000 nM for evaluation method A (neurocyte growth accelerating effect), and two doses of 200 nM and 1,000 nM for evaluation method B (neurite outgrowth promoting effect). Measurements were performed in triplicate for each concentration of each test compound in both evaluation methods A and B. The result of the evaluation method A was expressed as a cell proliferation rate (%) by determined a relative percentage (%) when the value of the negative control to which the test compound was not added, was regarded as 100%. […]

CCN1C=CC(=Cc2cc[n+](CC)c3ccccc23)c2ccccc21.[I-] [NK-6]
Cell proliferation rate (%) (PC12-HS cells [1]; 1.000 nM): 141.9% | Cell proliferation rate (%) (PC12-HS cells [1]; 40 nM): 105.0% | Action on PC12-HS growth acceleration (50 ng/ml) (PC12-HS cells [1]): ◯ (the relative value of 130% to 169% was judged to be equivalent to NK-4 (“circle”)) | Cell proliferation rate (%) (PC12-HS cells [1]; 200 nM): 117.0% | neurocyte growth acceleration activity (in words) (PC12-HS cells [1]): slightly weaker than that of NK-4 | cytotoxicity to PC12-HS cells (PC12-HS cells [1]): do not show cytotoxicity | Neurite-outgrowth rate (%) (PC12-HS cells [2]; 1.000 nM): 41.5% | Neurite-outgrowth rate (%) (PC12-HS cells [2]; 200 nM): 32.6% | Action on PC12-HS neurite-outgrowth promotion (500 ng/ml) (PC12-HS cells [2]): ⊚ (45% or more was judged to be more potent than NK-4 (“double circle”)) | neurite-outgrowth promoting activity (in words) (PC12-HS cells [2]): stronger neurite-outgrowth promoting activity than NK-4

CCN1C=CC(=CC=Cc2cc[n+](CC)c3ccccc23)c2ccccc21.[Br-] [NK-36]
Cell proliferation rate (%) (PC12-HS cells [1]; 1.000 nM): 137.2% | Cell proliferation rate (%) (PC12-HS cells [1]; 40 nM): 123.0% | Action on PC12-HS growth acceleration (50 ng/ml) (PC12-HS cells [1]): ◯ (the relative value of 130% to 169% was judged to be equivalent to NK-4 (“circle”)) | Cell proliferation rate (%) (PC12-HS cells [1]; 200 nM): 115.5% | neurocyte growth acceleration activity (in words) (PC12-HS cells [1]): slightly weaker than that of NK-4 | cytotoxicity to PC12-HS cells (PC12-HS cells [1]): do not show cytotoxicity | Neurite-outgrowth rate (%) (PC12-HS cells [2]; 1.000 nM): 28.7% | Neurite-outgrowth rate (%) (PC12-HS cells [2]; 200 nM): 33.8% | Action on PC12-HS neurite-outgrowth promotion (500 ng/ml) (PC12-HS cells [2]): ◯ (When the mean neurite-outgrowth rate was 25 to 44%, it was judged to be equivalent to the positive control NK-4 (“circle”)) | neurite-outgrowth promoting activity (in words) (PC12-HS cells [2]): almost equivalent neurite-outgrowth promoting rate to NK-4

CCCCN1C=CC(=CC=Cc2cc[n+](CCCC)c3ccccc23)c2ccccc21.[I-] [NK-44]
Cell proliferation rate (%) (PC12-HS cells [1]; 1.000 nM): 78.5% | cell proliferation relative to the negative control (PC12-HS cells [1]; 40 nM): about 1.9 times | Cell proliferation rate (%) (PC12-HS cells [1]; 40 nM): 193.4% | Action on PC12-HS growth acceleration (50 ng/ml) (PC12-HS cells [1]): ⊚ (170% or higher was judged to be significantly stronger than NK-4 (“double circle”)) | Cell proliferation rate (%) (PC12-HS cells [1]; 200 nM): 154.3% | neurocyte growth acceleration activity (in words) (PC12-HS cells [1]): strongest activity | cytotoxicity to PC12-HS cells (PC12-HS cells [1]): do not show cytotoxicity | Neurite-outgrowth rate (%) (PC12-HS cells [2]; 1.000 nM): 22.9% | Neurite-outgrowth rate (%) (PC12-HS cells [2]; 200 nM): 29.3% | Action on PC12-HS neurite-outgrowth promotion (500 ng/ml) (PC12-HS cells [2]): ◯ (When the mean neurite-outgrowth rate was 25 to 44%, it was judged to be equivalent to the positive control NK-4 (“circle”)) | neurite-outgrowth promoting activity (in words) (PC12-HS cells [2]): almost equivalent neurite-outgrowth promoting rate to NK-4
